Data on ten compounds can be found in ChEMBL document CHEMBL3124831, “Simplified 2-aminoquinoline-based scaffold for potent and selective neuronal nitric oxide synthase inhibition” (J Med Chem, 2014).

One series addresses Nitric oxide synthase 1 (Rattus norvegicus, UniProt P29476).
Series [1] in a line: Selectivity ratio of Ki for bovine recombinant eNOS to Ki for rat recombinant nNOS.
The nature of series [2]: Selectivity ratio of Ki for mouse recombinant iNOS to Ki for rat recombinant nNOS.
A further series has as its target T1, Nitric oxide synthase 3 (Bos taurus, UniProt P29473).
T1 sequence (P29473 whole entry): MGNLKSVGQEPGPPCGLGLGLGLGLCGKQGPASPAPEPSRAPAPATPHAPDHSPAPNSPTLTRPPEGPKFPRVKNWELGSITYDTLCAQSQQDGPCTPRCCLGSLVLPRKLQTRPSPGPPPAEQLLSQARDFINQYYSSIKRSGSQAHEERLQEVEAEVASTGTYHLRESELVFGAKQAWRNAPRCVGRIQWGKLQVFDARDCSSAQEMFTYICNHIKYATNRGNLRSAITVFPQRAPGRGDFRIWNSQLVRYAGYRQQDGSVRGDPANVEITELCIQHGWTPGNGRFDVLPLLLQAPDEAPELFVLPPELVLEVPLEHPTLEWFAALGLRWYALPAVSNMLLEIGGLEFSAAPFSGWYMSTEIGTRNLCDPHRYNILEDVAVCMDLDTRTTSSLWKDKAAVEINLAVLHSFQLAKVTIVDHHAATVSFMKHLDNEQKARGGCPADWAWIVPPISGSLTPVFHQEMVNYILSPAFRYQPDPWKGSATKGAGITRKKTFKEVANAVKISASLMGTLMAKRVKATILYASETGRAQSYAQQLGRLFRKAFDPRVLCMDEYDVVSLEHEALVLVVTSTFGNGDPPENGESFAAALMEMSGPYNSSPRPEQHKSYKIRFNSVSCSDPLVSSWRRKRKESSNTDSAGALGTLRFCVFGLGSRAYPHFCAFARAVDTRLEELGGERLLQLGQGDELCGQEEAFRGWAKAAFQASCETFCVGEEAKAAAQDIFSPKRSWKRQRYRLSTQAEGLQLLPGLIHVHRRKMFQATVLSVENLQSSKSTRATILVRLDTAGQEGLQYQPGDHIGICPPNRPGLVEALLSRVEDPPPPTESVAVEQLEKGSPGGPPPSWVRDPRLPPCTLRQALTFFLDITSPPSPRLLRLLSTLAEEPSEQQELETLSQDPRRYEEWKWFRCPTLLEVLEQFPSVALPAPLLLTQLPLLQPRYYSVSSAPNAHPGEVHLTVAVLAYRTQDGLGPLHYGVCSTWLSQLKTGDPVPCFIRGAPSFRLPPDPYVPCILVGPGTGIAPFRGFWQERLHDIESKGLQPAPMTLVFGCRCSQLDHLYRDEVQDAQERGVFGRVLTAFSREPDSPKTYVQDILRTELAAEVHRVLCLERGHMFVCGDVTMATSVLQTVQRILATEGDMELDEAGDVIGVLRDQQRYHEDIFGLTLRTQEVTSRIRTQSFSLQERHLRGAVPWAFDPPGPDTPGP

Series [3] addresses T2, Nitric oxide synthase, inducible (Mus musculus, UniProt P29477).
T2 sequence (P29477 whole entry): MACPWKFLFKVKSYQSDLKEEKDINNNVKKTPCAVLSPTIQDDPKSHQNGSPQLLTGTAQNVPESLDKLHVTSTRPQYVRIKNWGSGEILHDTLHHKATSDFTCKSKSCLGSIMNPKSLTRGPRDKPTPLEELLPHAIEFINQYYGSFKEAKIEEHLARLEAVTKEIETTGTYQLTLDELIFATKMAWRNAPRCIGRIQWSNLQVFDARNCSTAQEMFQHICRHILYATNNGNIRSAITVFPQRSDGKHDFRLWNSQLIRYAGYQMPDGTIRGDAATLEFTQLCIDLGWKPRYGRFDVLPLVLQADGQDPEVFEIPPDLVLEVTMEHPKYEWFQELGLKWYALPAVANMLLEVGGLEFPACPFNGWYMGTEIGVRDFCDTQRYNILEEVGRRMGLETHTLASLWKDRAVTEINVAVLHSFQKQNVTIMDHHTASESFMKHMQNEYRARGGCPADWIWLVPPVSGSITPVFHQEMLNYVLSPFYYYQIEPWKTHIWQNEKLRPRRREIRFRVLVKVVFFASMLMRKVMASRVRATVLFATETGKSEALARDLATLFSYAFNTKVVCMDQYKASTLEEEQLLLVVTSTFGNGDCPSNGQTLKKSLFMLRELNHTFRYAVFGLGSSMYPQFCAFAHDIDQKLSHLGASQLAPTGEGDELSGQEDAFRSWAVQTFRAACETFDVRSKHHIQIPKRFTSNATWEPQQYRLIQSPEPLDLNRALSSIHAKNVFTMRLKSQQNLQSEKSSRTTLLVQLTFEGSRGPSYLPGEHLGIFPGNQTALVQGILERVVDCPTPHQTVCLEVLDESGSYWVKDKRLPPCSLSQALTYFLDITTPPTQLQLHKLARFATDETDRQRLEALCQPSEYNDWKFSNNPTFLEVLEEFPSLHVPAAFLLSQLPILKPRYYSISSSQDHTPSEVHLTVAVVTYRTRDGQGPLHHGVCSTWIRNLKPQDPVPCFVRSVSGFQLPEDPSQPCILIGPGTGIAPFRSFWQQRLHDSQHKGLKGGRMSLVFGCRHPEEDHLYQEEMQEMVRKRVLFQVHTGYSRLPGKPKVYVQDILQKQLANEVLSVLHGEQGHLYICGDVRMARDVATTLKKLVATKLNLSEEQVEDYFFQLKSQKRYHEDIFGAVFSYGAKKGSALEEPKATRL
Description: Inhibition of mouse recombinant iNOS expressed in Escherichia coli using L-arginine as substrate assessed as NO production by hemoglobin capture assay

The subject of a further series is Caco-2. To be noted: human, caco-2, 2 h, 10 µM.

Sequence of Nitric oxide synthase 1 (P29476 whole entry): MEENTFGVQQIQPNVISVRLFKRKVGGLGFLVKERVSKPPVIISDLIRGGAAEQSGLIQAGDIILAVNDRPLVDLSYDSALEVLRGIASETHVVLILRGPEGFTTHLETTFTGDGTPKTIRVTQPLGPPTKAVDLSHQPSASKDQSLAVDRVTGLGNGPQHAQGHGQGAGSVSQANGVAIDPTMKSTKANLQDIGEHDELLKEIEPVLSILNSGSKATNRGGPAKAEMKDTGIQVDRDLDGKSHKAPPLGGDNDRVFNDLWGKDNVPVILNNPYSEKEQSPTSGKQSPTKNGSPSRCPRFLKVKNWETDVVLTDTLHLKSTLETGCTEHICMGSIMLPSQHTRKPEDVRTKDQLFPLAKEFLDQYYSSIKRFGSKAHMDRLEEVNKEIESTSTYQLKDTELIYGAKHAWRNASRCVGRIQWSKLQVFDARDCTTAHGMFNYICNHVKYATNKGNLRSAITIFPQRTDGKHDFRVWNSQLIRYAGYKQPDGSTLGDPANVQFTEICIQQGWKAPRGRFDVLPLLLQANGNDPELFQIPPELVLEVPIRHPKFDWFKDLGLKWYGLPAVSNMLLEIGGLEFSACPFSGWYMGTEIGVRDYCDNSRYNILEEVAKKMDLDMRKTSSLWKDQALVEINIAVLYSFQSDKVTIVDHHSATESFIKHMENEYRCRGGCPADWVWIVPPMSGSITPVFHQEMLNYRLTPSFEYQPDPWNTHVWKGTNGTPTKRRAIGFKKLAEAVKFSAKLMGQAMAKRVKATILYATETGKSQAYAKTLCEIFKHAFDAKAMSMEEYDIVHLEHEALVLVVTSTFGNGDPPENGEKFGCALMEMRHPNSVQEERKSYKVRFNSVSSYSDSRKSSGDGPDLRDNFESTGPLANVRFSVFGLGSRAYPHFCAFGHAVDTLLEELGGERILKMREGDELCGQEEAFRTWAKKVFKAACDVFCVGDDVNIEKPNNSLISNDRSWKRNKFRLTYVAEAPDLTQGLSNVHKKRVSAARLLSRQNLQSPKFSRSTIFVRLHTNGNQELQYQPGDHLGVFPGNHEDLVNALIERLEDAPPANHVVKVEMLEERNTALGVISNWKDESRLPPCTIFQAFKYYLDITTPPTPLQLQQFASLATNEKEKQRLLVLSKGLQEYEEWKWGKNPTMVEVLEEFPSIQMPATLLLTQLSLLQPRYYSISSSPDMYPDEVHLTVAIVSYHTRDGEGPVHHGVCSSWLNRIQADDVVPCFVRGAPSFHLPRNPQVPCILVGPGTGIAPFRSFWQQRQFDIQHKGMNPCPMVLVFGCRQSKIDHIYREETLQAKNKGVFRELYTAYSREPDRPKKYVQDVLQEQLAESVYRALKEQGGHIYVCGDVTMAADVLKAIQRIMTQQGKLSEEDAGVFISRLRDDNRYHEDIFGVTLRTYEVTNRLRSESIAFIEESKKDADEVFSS
Description for Caco-2: Apparent permeability across basolateral to apical side in human Caco2 cells assessed as compound recovery at 10 uM for 2 hrs by LC-MS/MS analysis
Description for Nitric oxide synthase 1: Inhibition of rat recombinant nNOS expressed in Escherichia coli using L-arginine as substrate assessed as NO production by hemoglobin capture assay
Description for Nitric oxide synthase 3: Inhibition of bovine recombinant eNOS expressed in Escherichia coli using L-arginine as substrate assessed as NO production by hemoglobin capture assay

For orientation: Ki means the dissociation constant of the complex between target and ligand, obtained from inhibition or displacement. Turning to `Nc1ccc2cc(CCNCCCc3cccc(F)c3)ccc2n1`, the Ki at Nitric oxide synthase 1 was determined as 4.37 µM.

Regarding `Nc1ccc2ccc(CCNCCc3ccc(Cl)cc3)cc2n1`, the Ratio Ki was found to be 47 in series [1] and 91 in series [2].

Consider `Nc1ccc2cc(CCNCc3cccc(F)c3)ccc2n1`, for which the Ki at Nitric oxide synthase 1 is more than 5.7 µM.

Consider `Nc1ccc2ccc(CNCCCc3cccc(F)c3)cc2n1`, for which the Ki on Nitric oxide synthase 1 turned out to be 0.06 µM; on Nitric oxide synthase 3, 3.69 µM; in series [3] it was 32.3 µM. Further, the Ratio Ki is 62 in series [1] and 538 in series [2].

Consider `Nc1ccc2ccc(CNCCc3cccc(F)c3)cc2n1`, for which the Ratio Ki in series [1] came out at 6.2; in series [2] it was 124.

With `Nc1ccc2cc(CNCCc3cccc(F)c3)ccc2n1`, the inhibition constant Ki on Nitric oxide synthase 1 was more than 5.7 µM.

Turning to `Nc1ccc2ccc(CCNCCc3ccc(F)cc3)cc2n1`, the Ratio Ki came to 37 in series [1] and 280 in series [2].

For `Nc1ccc2ccc(CCNCc3cccc(F)c3)cc2n1`, the figures for the Ratio Ki in series [1] and in series [2] were 30 and 97, respectively.

The term IC50 denotes the point on the concentration scale where inhibition reaches its midpoint. At Nitric oxide synthase 1, `Cl.Cl.Cl.N=C(Nc1ccc(CCNCc2cccc(Cl)c2)cc1)c1cccs1` displayed an IC50 of 0.035 µM. Also, in the series on Caco-2, the Drug recovery is 78%.

`Nc1ccc2cc(CCNCCc3cccc(F)c3)ccc2n1` yielded an inhibition constant Ki on Nitric oxide synthase 1 of more than 5.7 µM.
